Laboratory results reported in publication PMC9317670, “Temporal and Wash-Out Studies Identify Medicines for Malaria Venture Pathogen Box Compounds with Fast-Acting Activity against Both Trypanosoma cruzi and Trypanosoma brucei” (Microorganisms, 2022).

Tests used:
[1] = test system: T.b. brucei bloodstream 427 strain parasites; experiment: T.b. brucei 72 h REDOX-based (resazurin) viability assay; assay type: cell-based, Trypanosoma brucei brucei; details: for Emax / IC50: Trypanosoma brucei, 72 h; for SI (T.b. brucei) HEK: selectivity index in relation to HEK293 cells; for SI (T.b. brucei) (HEP): selectivity index in relation to HEPG2 cells
[2] = test system: T. cruzi Tulahuen strain parasites in 3T3 host cells; experiment: T. cruzi 48 h image-based assay; assay type: cell-based, Trypanosoma cruzi; details: for Emax / IC50: Trypanosoma cruzi, TULAHUEN, 48 h; for Emax: read-out: Emax % (T. cruzi) (converted); for IC50: read-out: IC50 (T. cruzi); for SI (T. cruzi) 3T3: selectivity index in relation to 3T3 host cells, highest dose 3T3 73 µM; for SI (T. cruzi) HEK: selectivity index in relation to HEK293 cells; for SI (T. cruzi) (HEP): selectivity index in relation to HEPG2 cells
T. cruzi [3] = experiment: T. cruzi temporal image-based assay, 24 h exposure; assay type: cell-based, Trypanosoma cruzi; details: Trypanosoma cruzi; for IC50: NA = not active at given concentration, read-out: IC50 24 h T. cruzi
T. cruzi [4] = experiment: T. cruzi compound wash off assay (48 h with compound, wash off, 72 h without); assay type: cell-based, Trypanosoma cruzi; details: T. cruzi; for Fold Change of IC50, wash off vs 48 h: IC50 from 48 h incubation to IC50 following wash off and further 72 h; for IC50: read-out: IC50 Wash Off
T.b. brucei [5] = experiment: T.b. brucei temporal viability (time-kill) assay, 24 h, PrestoBlue; assay type: cell-based, Trypanosoma brucei brucei; details: Trypanosoma brucei; for Emax: read-out: Emax 24 h T.b. brucei (converted); for IC50: read-out: IC50 24 h T.b. brucei
Description: Time-kill assays was undertaken as previously described, using the REDOX reagent PrestoBlue® [24]. […] Control compounds were added at the same concentrations at outlined for the resazurin-based assays.

T.b. brucei [6] = experiment: T.b. brucei temporal viability (time-kill) assay, 48 h, PrestoBlue; assay type: cell-based, Trypanosoma brucei brucei; details: Trypanosoma brucei; for Emax: read-out: Emax 48 h T.b. brucei (converted); for IC50: read-out: IC50 48 h T.b. brucei
T.b. rhodesiense STIB900 = T.b. rhodesiense STIB900 assay, 72 h; assay type: cell-based; details: Trypanosoma brucei; STIB900, 72 h; unit inferred; read-out: IC50 T. bR (T.b. rhodesiense)
T.b. gambiense STIB930 = T.b. gambiense STIB930 assay, 72 h; assay type: cell-based; details: Trypanosoma brucei, unit inferred, read-out: IC50 T. Bg STIB930 (T.b. gambiense)
[7] = target: T. cruzi recombinant CYP51 (TcCYP51) (Trypanosoma cruzi, UniProt Q7Z1V1); experiment: biochemical; details: criterion: IC50 within a log difference to posaconazole
T. cruzi and T.b. brucei = experiment: Speed of action and cidality classification from temporal and wash off assays; assay type: cell-based, Trypanosoma cruzi, Trypanosoma brucei brucei; details: for Speed of Action (FA/SA): TC = T. cruzi, TBB = T.b. brucei; for Speed of Action (Table 5): prioritised compounds, Fast/Slow
[8] = dosed orally in mice; ref [51]; cited from earlier work
HEK293 cells = experiment: HEK293 cytotoxicity assay; assay type: cell-based, human; details: HEK293, 72 h, NA = not active, highest dose 79 µM unless given
HEPG2 cells = experiment: HEPG2 cytotoxicity assay; assay type: cell-based, human; details: Homo sapiens; HEPG2, 72 h; NA = not active; highest dose 79 µM unless given; read-out: IC50 (HEP) (converted)
[9] = Trypanosoma cruzi, 48 h incubation, wash off, further 72 h

T. cruzi recombinant CYP51 (TcCYP51), sequence (Q7Z1V1 whole entry): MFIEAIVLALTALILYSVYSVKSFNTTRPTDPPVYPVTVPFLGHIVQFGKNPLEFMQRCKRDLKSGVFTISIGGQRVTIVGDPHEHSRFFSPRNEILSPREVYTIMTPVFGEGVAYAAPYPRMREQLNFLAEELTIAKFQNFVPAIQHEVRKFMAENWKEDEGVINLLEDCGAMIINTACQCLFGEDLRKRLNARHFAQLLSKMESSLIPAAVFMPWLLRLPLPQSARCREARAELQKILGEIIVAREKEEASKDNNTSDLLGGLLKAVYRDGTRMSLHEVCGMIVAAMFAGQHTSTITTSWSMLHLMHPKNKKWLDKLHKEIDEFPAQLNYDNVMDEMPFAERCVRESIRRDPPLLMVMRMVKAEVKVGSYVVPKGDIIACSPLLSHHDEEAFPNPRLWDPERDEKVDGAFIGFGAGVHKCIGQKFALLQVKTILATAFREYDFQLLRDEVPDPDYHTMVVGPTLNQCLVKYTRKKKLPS

Compound | IC50 (T. cruzi [3]) | Fold Change of IC50, wash off vs 48 h (T. cruzi [4]) | IC50 (T. cruzi [4]; [9]) | Emax [1] | IC50 [1] | SI (T.b. brucei) HEK [1] | SI (T.b. brucei) (HEP) [1] | Emax [2] | IC50 [2] | SI (T. cruzi) 3T3 [2] | SI (T. cruzi) HEK [2] | SI (T. cruzi) (HEP) [2] | Emax (T. cruzi [3]) | Emax (T.b. brucei [5]) | IC50 (T.b. brucei [5]) | Emax (T.b. brucei [6]) | IC50 (T.b. brucei [6]) | IC50 (T.b. rhodesiense STIB900) | IC50 (T.b. gambiense STIB930) | Speed of Action (FA/SA) (T. cruzi and T.b. brucei) | further results
N=C(N)c1ccc(OCCCCCOc2ccc(C(=N)N)cc2)cc1 [Pentamidine, reference compound] | – | – | – | 100% | 3.1 ± 0.1 nM | >216 | – | – | – | – | – | – | – | 99% | 12 ± 2.1 nM | 100% | 0.2 ± 0.0021 nM | – | 3 ± 2 nM | FA (Fast-acting (FA) = IC50 value can be determined following 24 h incubation, <10-fold difference in the IC50 value from 24 to 72 h) | IC50 HEK (HEK293 cells): NA at 0.67 µM (NT)
COc1ccc(C[C@H](N)C(=O)N[C@H]2[C@@H](O)[C@H](n3cnc4c(N(C)C)ncnc43)O[C@@H]2CO)cc1 [Puromycin, reference compound] | 3500 ± 440 nM | 0.50 fold | 2800 ± 130 nM | 100% | 63 ± 0.41 nM | 12 | 4.0 | 100% | 5600 ± 11 nM | 1.2 | 0.13 | 0.044 | – | 100% | 96 ± 13 nM | 100% | 97 ± 0.42 nM | – | – | FA (Fast-acting (FA) = IC50 value can be determined following 24 h incubation, <10-fold difference in the IC50 value from 24 to 72 h) | IC50 (HEK293 cells; Homo sapiens): 730 ± 270 nM; IC50 (HEPG2 cells): 250 nM

Second part, led by results:

IC50 (T. cruzi [3]) | Fold Change of IC50, wash off vs 48 h (T. cruzi [4]) | IC50 (T. cruzi [4]; [9]) | Compound | Emax [1] | IC50 [1] | SI (T.b. brucei) HEK [1] | SI (T.b. brucei) (HEP) [1] | Emax [2] | IC50 [2] | SI (T. cruzi) 3T3 [2] | SI (T. cruzi) HEK [2] | SI (T. cruzi) (HEP) [2] | Emax (T. cruzi [3]) | Emax (T.b. brucei [5]) | IC50 (T.b. brucei [5]) | Emax (T.b. brucei [6]) | IC50 (T.b. brucei [6]) | IC50 (T.b. rhodesiense STIB900) | IC50 (T.b. gambiense STIB930) | Speed of Action (FA/SA) (T. cruzi and T.b. brucei) | further results
900 ± 170 nM | 0.58 fold | 310 ± 67 nM | CCc1ccccc1-n1c(C)cn2c3c(=O)n(C(C(=O)OC)C(C)C)c(=O)n(C)c3nc12 (centres unmarked) [MMV 688550] | 99% | 25 ± 0.83 nM | >3160 (>3160) | >3160 (>3160) | 100% | 530 ± 110 nM | >138 | >149 (>149) | >149 (>149) | 80% | 100% | 22 ± 14 nM | 99% | 21 ± 0.53 nM | 80 ± 1.4 nM | < 1 nM | FA (Fast-acting (FA) = IC50 value can be determined following 24 h incubation, <10-fold difference in the IC50 value from 24 to 72 h) | Inhibition of TcCYP51 (in words) [7]: did not display activity; Speed of Action (Table 5) (T. cruzi and T.b. brucei): Fast
1300 ± 120 nM | 0.74 fold | 380 ± 56 nM | O=C(NCCc1ccn(-c2ccccc2)n1)C1CCCCC1 [MMV 688795] | 99% | 130 ± 52 nM | >608 (>608) | >608 (>608) | 100% | 580 ± 50.3 nM | >126 | >136 (>136) | >136 (>136) | 89% | 99% | 290 ± 4.7 nM | 99% | 106 ± 20 nM | 79 ± 0.7 nM | 630 ± 1.4 nM | FA (Fast-acting (FA) = IC50 value can be determined following 24 h incubation, <10-fold difference in the IC50 value from 24 to 72 h) | Speed of Action (Table 5) (T. cruzi and T.b. brucei): Fast
2400 ± 1300 nM | 1.1 fold | 1100 ± 480 nM | O=C(NCc1nnc2n1CCCCC2)c1ccc(-c2ccc(F)cc2)o1 [MMV 688796] | 99% | 120 ± 23 nM | >658 (>658) | >658 (>658) | 100% | 1200 ± 400 nM | >61 | >66 (>66) | >66 (>66) | 91% | 82% | 240 ± 53 nM | 100% | 97 ± 4.8 nM | 46 ± 31 nM | 160 ± 11 nM | FA (Fast-acting (FA) = IC50 value can be determined following 24 h incubation, <10-fold difference in the IC50 value from 24 to 72 h) | Emax (T. cruzi [4]; [9]): 98%; Speed of Action (Table 5) (T. cruzi and T.b. brucei): Fast; Half-life [8]: 3.9 h
